Reference: ChEMBL document CHEMBL5143615, “Novel 2-aryl-4-aryloxyquinoline-based fungistatics for Mucor circinelloides. Biological evaluation of activity, QSAR and docking study” (Bioorg Med Chem Lett, 2022)
Converted amounts (≈) assume the structure as drawn. The source made the active and inactive calls. The calls are words filed in the database; no cut-off is given here.

Tests used:
Mucor circinelloides [1] = assay: Antifungal activity against Mucor circinelloides R7B wild type strain assessed as reduction in spore germination at 100 ug/ml relative to control; type: functional; set-up: scale not given: the % may be the effect or the level left; details: dose 100 µg/ml
Mucor circinelloides [2] = assay: Antifungal activity against Mucor circinelloides M5 strain assessed as reduction in spore germination at 100 ug/ml relative to control; type: functional; set-up: scale not given: the % may be the effect or the level left; details: dose 100 µg/ml
Mucor circinelloides [3] = assay: Antifungal activity against Mucor circinelloides R7B wild type strain assessed as reduction in spore germination at 25 ug/ml relative to control; type: functional; set-up: scale not given: the % may be the effect or the level left; details: dose 25 µg/ml
Mucor circinelloides [4] = assay: Antifungal activity against Mucor circinelloides M5 strain assessed as reduction in spore germination at 25 ug/ml relative to control; type: functional; set-up: scale not given: the % may be the effect or the level left; details: dose 25 µg/ml
Mucor circinelloides [5] = assay: Antifungal activity against Mucor circinelloides R7B wild type strain assessed as reduction in spore germination at 50 ug/ml relative to control; type: functional; set-up: scale not given: the % may be the effect or the level left; details: dose 50 µg/ml
Mucor circinelloides [6] = assay: Antifungal activity against Mucor circinelloides M5 strain assessed as reduction in spore germination at 50 ug/ml relative to control; type: functional; set-up: scale not given: the % may be the effect or the level left; details: dose 50 µg/ml
Mucor circinelloides [7] = assay: Antifungal activity against Mucor circinelloides R7B wild type strain assessed as reduction in spore germination at 150 ug/ml relative to control; type: functional; set-up: scale not given: the % may be the effect or the level left; details: dose 150 µg/ml
Mucor circinelloides [8] = assay: Antifungal activity against Mucor circinelloides M5 strain assessed as reduction in spore germination at 150 ug/ml relative to control; type: functional; set-up: scale not given: the % may be the effect or the level left; details: dose 150 µg/ml
Microsporum canis [9] = assay: Antifungal activity against Microsporum canis clinical isolate 1 assessed as reduction in fungal growth by broth dilution method; type: functional
Microsporum canis [10] = assay: Antifungal activity against Microsporum canis clinical isolate 2 assessed as reduction in fungal growth by broth dilution method; type: functional
Microsporum canis [11] = assay: Antifungal activity against Microsporum canis clinical isolate 3 assessed as reduction in fungal growth by broth dilution method; type: functional
Nannizzia gypsea [12] = assay: Antifungal activity against Microsporum gypseum clinical isolate 1 assessed as reduction in fungal growth by broth dilution method; type: functional
Nannizzia gypsea [13] = assay: Antifungal activity against Microsporum gypseum clinical isolate 2 assessed as reduction in fungal growth by broth dilution method; type: functional
Mucor circinelloides [14] = assay: Antifungal activity against Mucor circinelloides M5 strain assessed as reduction in fungal growth by broth dilution method; type: functional
[15] = system: Trichophyton mentagrophytes; assay: Antifungal activity against Trichophyton mentagrophytes clinical isolate 1 assessed as reduction in fungal growth by broth dilution method; type: functional
[16] = system: Trichophyton mentagrophytes; assay: Antifungal activity against Trichophyton mentagrophytes clinical isolate 2 assessed as reduction in fungal growth by broth dilution method; type: functional
[17] = system: Trichophyton mentagrophytes; assay: Antifungal activity against Trichophyton mentagrophytes clinical isolate 3 assessed as reduction in fungal growth by broth dilution method; type: functional
Trichophyton rubrum [18] = assay: Antifungal activity against Trichophyton rubrum clinical isolate 1 assessed as reduction in fungal growth by broth dilution method; type: functional
Trichophyton rubrum [19] = assay: Antifungal activity against Trichophyton rubrum clinical isolate 2 assessed as reduction in fungal growth by broth dilution method; type: functional
Epidermophyton floccosum = assay: Antifungal activity against Epidermophyton floccosum clinical isolate 1 assessed as reduction in fungal growth by broth dilution method; type: functional
Aspergillus nidulans [20] = assay: Antifungal activity against Aspergillus nidulans clinical isolate 1 assessed as reduction in fungal growth by broth dilution method; type: functional
Aspergillus nidulans [21] = assay: Antifungal activity against Aspergillus nidulans clinical isolate 2 assessed as reduction in fungal growth by broth dilution method; type: functional
Aspergillus niger = assay: Antifungal activity against Aspergillus niger clinical isolate 1 assessed as reduction in fungal growth by broth dilution method; type: functional
Mucor circinelloides [22] = assay: Antifungal activity against Mucor circinelloides R7B wild type strain assessed as reduction in fungal growth by broth dilution method; type: functional
[23] = Cytotoxicity against mouse NIH/3T3 cells assessed as reduction in cell viability at 25 ug/ml incubated for 48 hrs by MTT assay (reference value: 93.8 +/- 4.9 %); type: toxicity, cell-based, NIH3T3; details: at 25 µg/mL, read-out: Activity
[24] = Cytotoxicity against mouse NIH/3T3 cells assessed as reduction in cell viability at 50 ug/ml incubated for 48 hrs by MTT assay (reference value: 93.8 +/- 4.9 %); type: toxicity, cell-based, NIH3T3; details: at 50 µg/mL, read-out: Activity
[25] = Cytotoxicity against mouse NIH/3T3 cells assessed as reduction in cell viability at 100 ug/ml incubated for 48 hrs by MTT assay (reference value: 93.8 +/- 4.9 %); type: toxicity, cell-based, NIH3T3; details: at 100 µg/mL, read-out: Activity
[26] = Cytotoxicity against mouse NIH/3T3 cells assessed as reduction in cell viability at 150 ug/ml incubated for 48 hrs by MTT assay (reference value: 93.8 +/- 4.9 %); type: toxicity, cell-based, NIH3T3; details: at 150 µg/mL, read-out: Activity
[27] = Cytotoxicity against mouse NIH/3T3 cells assessed as reduction in cell viability at 200 ug/ml incubated for 48 hrs by MTT assay (reference value: 93.8 +/- 4.9 %); type: toxicity, cell-based, NIH3T3; details: at 200 µg/mL, read-out: Activity
[28] = molecular target: T1, Lanosterol 14-alpha demethylase (Mus musculus, UniProt Q8K0C4); assay: Inhibition of CYP51 in mouse NIH/3T3 cells assessed as specific enzymatic activity at 25 ug/ml incubated for 48 hrs by ELISA analysis; type: ADME, cell-based; details: nih/3t3, 48 h, dose 25 µg/ml
T1 sequence (Q8K0C4 whole entry): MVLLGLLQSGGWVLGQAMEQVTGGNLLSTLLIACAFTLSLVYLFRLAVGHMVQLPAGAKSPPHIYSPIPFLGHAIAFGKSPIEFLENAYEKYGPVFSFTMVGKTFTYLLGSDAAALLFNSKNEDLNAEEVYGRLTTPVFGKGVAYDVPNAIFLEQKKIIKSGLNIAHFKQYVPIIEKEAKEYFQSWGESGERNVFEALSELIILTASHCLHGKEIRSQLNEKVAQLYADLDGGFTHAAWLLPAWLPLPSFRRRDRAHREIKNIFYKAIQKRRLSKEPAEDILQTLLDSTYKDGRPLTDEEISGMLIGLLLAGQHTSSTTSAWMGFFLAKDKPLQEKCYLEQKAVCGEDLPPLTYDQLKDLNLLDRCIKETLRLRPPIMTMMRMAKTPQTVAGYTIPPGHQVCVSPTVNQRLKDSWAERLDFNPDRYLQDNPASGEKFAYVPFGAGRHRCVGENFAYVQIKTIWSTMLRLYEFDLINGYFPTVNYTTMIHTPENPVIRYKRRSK

[29] = molecular target: T1, Lanosterol 14-alpha demethylase; assay: Inhibition of CYP51 in mouse NIH/3T3 cells assessed as specific enzymatic activity at 50 ug/ml incubated for 48 hrs by ELISA analysis; type: ADME, cell-based; details: nih/3t3, 48 h, dose 50 µg/ml
[30] = molecular target: T1, Lanosterol 14-alpha demethylase; assay: Inhibition of CYP51 in mouse NIH/3T3 cells assessed as specific enzymatic activity at 100 ug/ml incubated for 48 hrs by ELISA analysis; type: ADME, cell-based; details: nih/3t3, 48 h, dose 100 µg/ml
[31] = molecular target: T1, Lanosterol 14-alpha demethylase; assay: Inhibition of CYP51 in mouse NIH/3T3 cells assessed as specific enzymatic activity at 150 ug/ml incubated for 48 hrs by ELISA analysis; type: ADME, cell-based; details: nih/3t3, 48 h, dose 150 µg/ml
[32] = molecular target: T1, Lanosterol 14-alpha demethylase; assay: Inhibition of CYP51 in mouse NIH/3T3 cells assessed as specific enzymatic activity at 200 ug/ml incubated for 48 hrs by ELISA analysis; type: ADME, cell-based; details: nih/3t3, 48 h, dose 200 µg/ml
Mucor circinelloides [33] = assay: Antifungal activity against Mucor circinelloides R7B wild type strain assessed as few mycelia with several spores at 50 ug/ml by microscopic analysis; type: functional, organism-based; details: dose 50.0 µg/ml
Mucor circinelloides [34] = assay: Antifungal activity against Mucor circinelloides M5 strain assessed as few mycelia with several spores at 50 ug/ml by microscopic analysis; type: functional, organism-based; details: dose 50.0 µg/ml
Mucor circinelloides [35] = assay: Antifungal activity against Mucor circinelloides R7B wild type strain assessed as non-germinated spores and undifferentiated hyphae at 50 ug/ml by microscopic analysis; type: functional, organism-based; details: dose 50.0 µg/ml
Mucor circinelloides [36] = assay: Antifungal activity against Mucor circinelloides M5 strain assessed as non-germinated spores and undifferentiated hyphae at 50 ug/ml by microscopic analysis; type: functional, organism-based; details: dose 50.0 µg/ml
Mucor circinelloides [37] = assay: Antifungal activity against Mucor circinelloides R7B wild type strain assessed as complete absence of mycelia at 100 to 150 ug/ml by microscopic analysis; type: functional, organism-based; details: dose 100-150 µg/ml
Mucor circinelloides [38] = assay: Antifungal activity against Mucor circinelloides M5 strain assessed as complete absence of mycelia at 100 to 150 ug/ml by microscopic analysis; type: functional, organism-based; details: dose 100-150 µg/ml
Mucor circinelloides [39] = assay: Antifungal activity against Mucor circinelloides R7B wild type strain assessed as non-germinated spores at 100 to 150 ug/ml by microscopic analysis; type: functional, organism-based; details: dose 100-150 µg/ml
Mucor circinelloides [40] = assay: Antifungal activity against Mucor circinelloides M5 strain assessed as non-germinated spores at 100 to 150 ug/ml by microscopic analysis; type: functional, organism-based; details: dose 100-150 µg/ml

MIC (Microsporum canis [9]): 100 µg/mL (≈ 300 µM)
MIC (Microsporum canis [10]): 100 µg/mL (≈ 300 µM)
MIC (Microsporum canis [11]): 100 µg/mL (≈ 300 µM)
MIC (Nannizzia gypsea [12]): 100 µg/mL (≈ 300 µM)
MIC (Nannizzia gypsea [13]): 100 µg/mL (≈ 300 µM)
MIC (Mucor circinelloides [14]): 100 µg/mL (≈ 300 µM)
MIC [15]: 125 µg/mL (≈ 375 µM)
MIC [16]: 125 µg/mL (≈ 375 µM)
MIC [17]: 125 µg/mL (≈ 375 µM)
MIC (Trichophyton rubrum [18]): 125 µg/mL (≈ 375 µM)
MIC (Trichophyton rubrum [19]): 125 µg/mL (≈ 375 µM)
MIC (Epidermophyton floccosum): 125 µg/mL (≈ 375 µM)
MIC (Aspergillus nidulans [20]): 150 µg/mL (≈ 450 µM)
MIC (Aspergillus nidulans [21]): 150 µg/mL (≈ 450 µM)
MIC (Aspergillus niger): 150 µg/mL (≈ 450 µM)
MIC (Mucor circinelloides [22]): 150 µg/mL (≈ 450 µM)
Activity [28]: 17.96 U/mg
Activity [29]: 13.12 U/mg
Activity [30]: 6.76 U/mg
Activity [31]: 3.28 U/mg
Activity [32]: 1.18 U/mg
Compound: Fc1cc(F)cc(-c2cc(Oc3ccccc3)c3ccccc3n2)c1
Activity (Mucor circinelloides [1]): 6.7%
Activity (Mucor circinelloides [2]): 4.5%
Activity (Mucor circinelloides [3]): 78.5%
Activity (Mucor circinelloides [4]): 74.2%
Activity (Mucor circinelloides [5]): 34.7%
Activity (Mucor circinelloides [6]): 38.5%
Activity (Mucor circinelloides [7]): 1.7%
Activity (Mucor circinelloides [8]): 2.5%
viability at 48 h, 25 ug/ml [23]: 90.7%
viability at 48 h, 50 ug/ml [24]: 53.3%
viability at 48 h, 100 ug/ml [25]: 20.4%
viability at 48 h, 150 ug/ml [26]: 15%
viability at 48 h, 200 ug/ml [27]: 12.6%
Activity (Mucor circinelloides [33]): Active
Activity (Mucor circinelloides [34]): Active
Activity (Mucor circinelloides [35]): Active
Activity (Mucor circinelloides [36]): Active
Activity (Mucor circinelloides [37]): Active
Activity (Mucor circinelloides [38]): Active
Activity (Mucor circinelloides [39]): Active
Activity (Mucor circinelloides [40]): Active
